According to PubChem BioAssay (NCI):
Where “and” joins values, the source holds several entries; their conditions need not be identical. Equal entries are not always repeated.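 Grown in 96-well plates, cells were treated for 48 hours with each compound at five concentrations. Insufficient inhibition: endpoint recorded as highest concentration tested. GI50: concentration for 50% inhibition of growth. The concentration for full growth arrest is given as TGI.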

Columns and labels:
Test in all cases: DTP human tumour cell line panel, 48 h
HCT-116 colon = tested on: HCT-116 colon
HCT-15 colon = tested on: HCT-15 colon
KM12 colon = tested on: KM12 colon
MALME-3M melanoma = tested on: MALME-3M melanoma
PC-3 prostate = tested on: PC-3 prostate
SF-295 CNS = tested on: SF-295 CNS
SK-MEL-28 melanoma = tested on: SK-MEL-28 melanoma
SN12C renal = tested on: SN12C renal
SW-620 colon = tested on: SW-620 colon
UACC-257 melanoma = tested on: UACC-257 melanoma

Row | Compound | GI50 (HCT-116 colon) [µM] | TGI (HCT-116 colon) [µM] | GI50 (HCT-15 colon) [µM] | TGI (HCT-15 colon) [µM] | GI50 (KM12 colon) | TGI (KM12 colon) [µM] | GI50 (MALME-3M melanoma) [µM] | TGI (MALME-3M melanoma) [µM] | GI50 (PC-3 prostate) | TGI (PC-3 prostate) [µM] | GI50 (SF-295 CNS) [µM] | TGI (SF-295 CNS) [µM] | GI50 (SK-MEL-28 melanoma) [µM] | TGI (SK-MEL-28 melanoma) [µM] | GI50 (SN12C renal) | TGI (SN12C renal) [µM] | GI50 (SW-620 colon) | TGI (SW-620 colon) [µM] | GI50 (UACC-257 melanoma) [µM] | TGI (UACC-257 melanoma) [µM]
1 | Nc1nc2c(c3cnccc13)C(c1cccc(Cl)c1)Cc1cnccc1-2 (centres undefined) | 0.448 | 11.3 | 0.388 | 7.93 | 0.409 µM | 12.2 | 0.419 | 17.8 | 0.439 µM | 1.66 | 0.273 | 0.914 | 2.6 | 20.6 | 0.668 µM | 14.4 | 0.455 µM | 17.6 | 4.36 | 22.5
2 | CCc1ccc(Nc2cc(C)nc3nc(C)nn23)cc1 | 80.1 | > 100 | 32.8 | > 100 | 70.6 µM | > 100 | 69.5 | > 100 | 53.3 µM | > 100 | 78.2 | > 100 | 48.8 | > 100 | 46.1 µM | > 100 | > 100 µM | > 100 | > 100 | > 100
3 | NC[C@@](O)(c1ccc(Cl)cc1)c1ccc(-c2cn[nH]c2)cc1 | 1.44 | 3.19 | 0.867 | 2.7 | 3.44 µM and 3.48 µM | > 100 | 1.57 | 3.08 | 3.89 µM and 2.19 µM | > 100 | 0.969 | 4.62 | 3.97 | > 10 | 2.39 µM and 1.88 µM | > 100 | 2.13 µM and 1.56 µM | – | 1.7 | 4.57
4 | COc1ccc(/C=C/C(=O)c2ccc(Nc3ccnc4cc(Cl)ccc34)cc2)cc1 | 0.412 | > 100 | > 100 | > 100 | > 79.4 µM | > 100 | > 100 | > 100 | > 100 µM | > 100 | > 100 | > 100 | > 100 | > 100 | > 100 µM | > 100 | > 100 µM | > 100 | > 100 | > 100
5 | C[C@@]1(N2C(=O)OC[C@@H]2c2ccccc2)C(=O)N([C@H](CC(=O)N2CCC(N3CCCCC3)CC2)C(=O)NCc2cccc(C(F)(F)F)c2)[C@@H]1/C=C/c1ccccc1 | 1.93 | 3.51 | 1.79 | 3.62 | 2.42 µM | 6.21 | 1.83 | 3.54 | 4.15 µM | 15.7 | 1.73 | 3.42 | 1.8 | 3.51 | 2 µM | 4.31 | 1.98 µM | 4.09 | 2.09 | 3.97
6 | O=C(CCl)Nc1ccc2c(c1)C(=O)c1ccc(NC(=O)CCl)cc1C2=O | 0.199 | 0.768 | 0.183 | 0.469 | 1.06 µM | 2.42 | 0.219 | 0.888 | 0.876 µM | 2.5 | 1.44 | 3.29 | 0.321 | 1.33 | 0.35 µM | 1.76 | 0.198 µM | 0.493 | 1.8 | 4.87
7 | CSc1nc2c(c(=O)[nH]1)C(c1ccc(Cl)cc1)C1=C(N2)/C(=C/c2ccc(Cl)cc2)CNC1 (centres undefined) | 1.72 | 3.55 | 2.04 | 5.54 | 2.06 µM | 4.47 | 4.41 | 19.2 | 1.99 µM | 5.1 | 1.96 | 4.43 | 2.3 | 6.47 | 2.06 µM | 4.7 | 2.86 µM | 10 | 2.63 | 9.4
8 | COc1ccc(-c2coc3cc(OC)cc(O)c3c2=O)cc1 | – | > 100 | – | > 100 | – | > 100 | – | > 100 | – | > 100 | – | > 100 | – | > 100 | – | > 100 | – | > 100 | – | > 100
9 | CC(C)[C@@H]1CC[C@@H]2[C@@H]1[C@H](OC(=O)/C=C/c1ccccc1)[C@]1(C(C)C)C[C@@H](OC(=O)CO)[C@@]2(C)O1 | 5.79 | 11.3 | 4.72 | 10 | 7.07 µM | 14.6 | 5.97 | 11.1 | 5.31 µM | 12.2 | 5.07 | 9.56 | 4.89 | 9.87 | 3.39 µM | 8.04 | 6.26 µM | 12.9 | 7.83 | 17.6
10 | Cc1ccc(S(=O)(=O)n2cc(-c3nnnn3-c3ccc(Cl)cc3)c(=O)c3ccccc32)cc1 | 45.9 | > 100 | > 100 | > 100 | > 100 µM | > 100 | > 100 | > 100 | 57.3 µM | > 100 | 52.9 | > 100 | > 100 | > 100 | > 100 µM | > 100 | > 100 µM | > 100 | > 100 | > 100
11 | C=C(CN1CCN(c2cccc(F)c2)CC1)c1ccc(C(=O)Nc2ccccc2N)cc1 | 1.08 | 12.5 | 1.02 | > 100 | 1.38 µM | 50.1 | 1.83 | 68 | 0.689 µM | 4.03 | 2.77 | 73.6 | 0.676 | 38.6 | 2.74 µM | > 100 | 2.53 µM | > 100 | 8.19 | 47.5
12 | COC(=O)c1ccc(C2SCC(=O)N2NC(=O)C(O)c2ccccc2)cc1 (centres undefined) | > 100 | > 100 | > 100 | > 100 | > 100 µM | > 100 | > 100 | > 100 | > 100 µM | > 100 | > 100 | > 100 | > 100 | > 100 | > 100 µM | > 100 | > 100 µM | > 100 | > 100 | > 100
13 | COc1ccc(Nc2ncccc2C(=O)NCc2cn(Cc3cccc(Oc4ccccc4)c3)nn2)cc1 | 4.17 | > 100 | 3.93 | > 100 | 3.43 µM | > 100 | 3.8 | > 100 | 3.86 µM | > 100 | 2.94 | > 100 | 3.88 | > 100 | 4.75 µM | > 100 | 3.86 µM | > 100 | 4.82 | > 100
